Source: EP2128622A1, “Means and methods for diagnosing metastasising potentials of tumor cells” (DKFZ Deutsches Krebsforschungszentrum, priority 2008, dated 2009)
Numbered stars: 1 amine (or outer) side, 2 acyl side, 3 side chain; on linkers, the order of the positions; unused ones are H or OH. Bridge positions count the residues as written; N and C are the ends. Square brackets hold non-standard residues; d marks the D form. Peptide text beside a SMILES is read from it. I, II: the chains in the order shown. Actinocin(9to1) = Cc1c2oc3c(C)ccc(C(=O)[*:1])c3nc-2c(C(=O)[*:2])c(N)c1=O; NMeV = CN[C@H](C(=O)O)C(C)C; Sar = CNCC(=O)O

How the values were obtained:
HaCaT cells [1] = experiment: Migration assay (scratch assay, model for wound healing); type: cell-based, human
Procedure: Using a human keratinocyte cell line (HaCaT) in a Scratch-Assay as a model for wound healing, different model-predicted points of interference were tested. First it was confirmed that HGF-induced migration predominantly depends on a transcriptional response.
Immortalized human keratinocytes (HaCaT cells) were cultured in monoculture with DMEM (10% FCS, 100 U/ml penicillin, 100 µg/ml streptomycin). Subsequently, the cell monolayer was damaged with a 'scratch' using a pipette tip and cells were treated with 5 µg/ml mitomycin c (Sigma-Aldrich) for three hours before stimulation. Cells were stimulated at indicated time points and periods with cytokines and/or inhibitors: 10 ng/ml HGF, (R&D Systems), 1 ng/ml EGF (R&D Systems), 150 nM Tyrphostin AG1473 (Biomol) (EGF-R inhibitor) or 1 µM GW 2974 (Sigma) (EGF-R inhibitor), […] Meloxicam (Biomol) (PTGS-2 inhibitor), 0.5 µM H-89 (Calbiochem) (PKA inhibitor) or 10 µM Myristoylated PKI (14-22) amide, cell-permeable PKA inhibitor (Biomol), 200 µM 8-(4-Chlorophenylthio)adenosine 3',5'-cyclic monophosphate sodium salt (Sigma) (PKA activator) and incubated for further 30 hours. Relative migratory activity was determined by measuring migration distance during culture using standard protocols.

HaCaT cells [2] = experiment: MTT-viability assay; type: cell-based, human; details: under Actinomycin D treatment; data not shown

Nc1ncnc2c1nc(Sc1ccc(Cl)cc1)n2[C@@H]1O[C@@H]2COP(=O)([O-])O[C@H]2[C@H]1O.[Na+] [8-(4-Chlorophenylthio)adenosine 3',5'-cyclic monophosphate sodium salt]
HGF-induced HaCaT migration (HaCaT cells [1]; Fig. 6C, 200 µM added at different time points with respect to HGF pulse stimulation (10 ng/ml for 1.5h)): strongly decreases

CN(C)c1cc2c(Nc3ccc4c(cnn4Cc4ccccc4)c3)ncnc2cn1 [GW2974]
HGF-induced migration (HaCaT cells [1]; Fig. 3G, 1 µM GW 2974 simultaneous to 10 ng/ml HGF, 30 h): abolish HGF-induced migration

Cc1c2oc3c(C)ccc(C(=O)N[C@@H]4C(=O)N[C@H](C(C)C)C(=O)N5CCC[C@H]5C(=O)N(C)CC(=O)N(C)[C@@H](C(C)C)C(=O)O[C@@H]4C)c3nc-2c(C(=O)N[C@@H]2C(=O)N[C@H](C(C)C)C(=O)N3CCC[C@H]3C(=O)N(C)CC(=O)N(C)[C@@H](C(C)C)C(=O)O[C@@H]2C)c(N)c1=O [Actimocyin D, Actinomycin D] (I: T[dV]P[Sar][NMeV] / II: T[dV]P[Sar][NMeV]; ester I:1-I:C, II:1-II:C; linker I:N-II:N via Actinocin(9to1))
cell viability (HaCaT cells [2]): still viable
migratory response to HGF (HaCaT cells [1]; Fig. 2B, prolonged incubation (30 h) with 10 ng/ml recombinant human HGF plus Actinomycin D 5 µg/ml): abolished any migratory response to HGF

O=S(=O)(NCCNC/C=C/c1ccc(Br)cc1)c1cccc2cnccc12 [H-89]
HGF-induced migration (HaCaT cells [1]; Fig. 6C, 0.5 µM at the time of HGF stimulation): slightly increases migration
development of a migratory response (HaCaT cells [1]; Fig. 6C, 0.5 µM directly after HGF pulse stimulation (1.5 h)): does not alter development of a migratory response
further migration (HaCaT cells [1]; Fig. 6C, PKA inhibition after 22 h, when cells already developed a full migratory response): delays further migration
